{"source": "patent US8476197B2", "about": "“Aminopropenoates as fungicides” (priority 2009, dated 2013)", "key": {"[1]": {"system": "Myzus persicae", "conditions": "spray on Chinese cabbage leaf-disks, 500 g/ha, after 6 days", "method": "Chinese cabbage (Brassica pekinesis) leaf-disks infected with all instars of the green peach aphid (Myzus persicae), are sprayed with a preparation of the active ingredient at the desired concentration. After 6 days mortality in % is determined. 100% means that all aphids have been killed; 0% means that none of the aphids have been killed."}, "[2]": {"system": "Phaedon cochleariae", "conditions": "spray on Chinese cabbage leaf-disks, 500 g/ha, after 7 days", "method": "• Solvent: 78.0 parts by weight of acetone • 1.5 parts by weight of dimethylformamide • Emulsifier: 0.5 parts by weight of alkylaryl polyglycolether\nChinese cabbage (Brassica pekinesis) leaf-disks are sprayed with a preparation of the active ingredient of the desired concentration. Once dry, the leaf disks are infested with mustard beetle larvae (Phaedon cochleariae). After 7 days mortality in % is determined. 100% means that all beetle larvae have been killed and 0% means that none of the beetle larvae have been killed."}, "[3]": {"system": "Boophilus microplus", "test": "Boophilus microplus test (injection)", "assay_type": "in vivo", "conditions": "injection into adult engorged female ticks, 20 μg/animal, after 7 days", "protocol": "Boophilus microplus—Test Injection)\n• Solvent: dimethyl sulfoxide\nFive adult engorged female ticks (Boophilus microplus) are injected with 1 μl compound solution into the abdomen. Ticks are transferred into replica plates and incubated in a climate chamber for a period of time. Egg deposition of fertile eggs is monitored. […] 100% means that all eggs are infertile; 0% means that all eggs are fertile."}, "[4]": {"conditions": "preparation examples, HPLC method ([a], [b] or [c]) not stated"}}, "note": "Where two headings read alike, the source gives them in different places. Marks after values point to notes of the source that are not given here."}
{"compound": "CNC(=O)C(C#N)=C(NC(C)C1CC1)c1cccnc1Cl", "note": "(mixture of isomers) [Compound 1244]", "values": [{"measurement": "activity (mortality)", "setting": "[1]", "result": 100, "unit": "%"}]}
{"compound": "CCOC(=O)C(C#N)=C(NC(C)c1nccs1)c1ncc(C(F)(F)F)cc1Cl", "note": "(racemic) [Compound 40]", "values": [{"measurement": "activity (mortality)", "setting": "[2]", "result": 83, "unit": "%"}, {"measurement": "Log P", "setting": "pH 2.7", "result": "3.37^[a]"}]}
{"compound": "CCOC(=O)C(C#N)=C(NC(C)c1nccs1)c1cccnc1SC", "note": "(racemic) [Compound 62]", "values": [{"measurement": "activity (mortality)", "setting": "[1]", "result": 100, "unit": "%"}, {"measurement": "Log P", "setting": "pH 7.5", "result": 2.73}]}
{"compound": "CCOC(=O)C(C#N)=C(NC1CCCNC1=O)c1cccnc1Cl", "note": "(racemic) [Compound 239]", "values": [{"measurement": "activity (mortality; 100% means all eggs infertile)", "setting": "[3]", "result": 100, "unit": "%"}, {"measurement": "Log P", "setting": "pH 2.3", "result": 1.67}, {"measurement": "Log P", "setting": "pH 7.5", "result": 1.6}]}
{"compound": "CC(N/C(=C(/C#N)C(=O)O)c1sccc1Br)c1nccs1", "note": "(stereo not drawn) [(2Z)-3-(3-bromo-2-thienyl)-2-cyano-3-{[1-(1,3-thiazol-2-yl)ethyl]amino}acrylic acid]", "values": [{"measurement": "chromatographic logP", "setting": "[4]", "result": 1.23}]}
{"compound": "CSCC(C)NC(=C(C#N)C(=O)OC(C)C)c1cccnc1Cl", "note": "(stereo not drawn) [Compound 597]", "values": [{"measurement": "activity (mortality)", "setting": "[1]", "result": 90, "unit": "%"}, {"measurement": "Log P", "setting": "pH 7.5", "result": 3.03}]}
{"compound": "CCOC(=O)C(C#N)=C(NC(C)C(=O)NC)c1ncc(C(F)(F)F)cc1Cl", "note": "(stereo not drawn) [Compound 600]", "values": [{"measurement": "activity (mortality)", "setting": "[1]", "result": 100, "unit": "%"}, {"measurement": "Log P", "setting": "pH 2.7", "result": "2.41^[a]"}]}
{"compound": "CC(C)NC(=O)C(C#N)=C(NC(C)C(C)C)c1cccnc1Cl", "note": "(stereo not drawn) [Compound 957]", "values": [{"measurement": "activity (mortality)", "setting": "[2]", "result": 100, "unit": "%"}, {"measurement": "Log P", "setting": "pH 2.3", "result": 3.37}, {"measurement": "Log P", "setting": "pH 7.5", "result": 3.39}]}
{"compound": "C#CC(C)(C)NC(=C(C#N)C(=O)OC)c1cccnc1Cl", "note": "[Compound 1028]", "values": [{"measurement": "activity (mortality)", "setting": "[2]", "result": 83, "unit": "%"}, {"measurement": "Log P", "setting": "pH 2.7", "result": "2.23^[a]"}]}
{"compound": "CCOC(=O)C(C#N)=C(NC(C)C(C)C)c1cccnc1-c1ccc(Cl)c(Cl)c1", "note": "(stereo not drawn) [Compound 1475]", "values": [{"measurement": "activity (mortality)", "setting": "[2]", "result": 100, "unit": "%"}, {"measurement": "Log P", "setting": "pH 2.3", "result": "4.56^[c]; 4.56^[b]"}, {"measurement": "Log P", "setting": "pH 7.5", "result": "4.56^[c]; 4.56^[b]"}]}
{"compound": "CCOC(=O)C(C#N)=C(NC(C)C(C)C)c1cccnc1-c1cncnc1", "note": "(stereo not drawn) [Compound 1591]", "values": [{"measurement": "activity (mortality)", "setting": "[2]", "result": 100, "unit": "%"}, {"measurement": "Log P", "setting": "pH 7.5", "result": 2.42}]}
{"compound": "CCOC(=O)C(C#N)=C(Cl)c1scc(C)c1Cl", "note": "[ethyl 3-chloro-3-(3-chloro-4-methyl-2-thienyl)-2-cyanoacrylate]", "values": [{"measurement": "chromatographic logP", "setting": "[4]", "result": 3.65}, {"measurement": "LogP", "setting": "[4]", "result": 3.70}]}
{"compound": "CCOC(=O)/C(C#N)=C(\\NCC(c1ccccc1)C(C)C)c1cccnc1Cl", "note": "(stereo not drawn) [ethyl (2Z)-3-(2-chloropyridin-3-yl)-2-cyano-3-[(3-methyl-2-phenylbutyl)amino]acrylate]", "values": [{"measurement": "chromatographic logP", "setting": "[4]", "result": 4.21}]}
{"compound": "CCOC(=O)/C(C#N)=C(\\NCCc1ncc(C(F)(F)F)cc1Cl)c1cccnc1Cl", "note": "[ethyl (2Z)-3-(2-chloropyridin-3-yl)-3-({2-[3-chloro-5-(trifluoromethyl)pyridin-2-yl]ethyl}amino)-2-cyanoacrylate]", "values": [{"measurement": "chromatographic logP", "setting": "[4]", "result": 3.57}]}
{"compound": "CCOC(=O)/C(C#N)=C(\\NC(C)c1ccc(Cl)nc1)c1cccnc1Cl", "note": "(stereo not drawn) [ethyl (2Z)-3-(2-chloropyridin-3-yl)-3-{[1-(6-chloropyridin-3-yl)ethyl]amino}-2-cyanoacrylate]", "values": [{"measurement": "chromatographic logP", "setting": "[4]", "result": 2.8}]}
{"compound": "CCOC(=O)/C(C#N)=C(\\N[C@H](C)C(=O)NC)c1scc(C)c1Cl", "note": "[ethyl (2Z)-3-(3-chloro-4-methyl-2-thienyl)-2-cyano-3-{[(2R)-1-(methylamino)-1-oxopropan-2-yl]amino}acrylate]", "values": [{"measurement": "chromatographic logP", "setting": "[4]", "result": 3.61}]}
{"compound": "CCN/C(=C(/C#N)C(=O)OCC)c1cccnc1-c1ccc(Cl)cc1", "note": "[ethyl (2Z)-3-[2-(4-chlorophenyl)pyridin-3-yl]-2-cyano-3-(ethylamino)acrylate]", "values": [{"measurement": "chromatographic logP", "setting": "[4]", "result": 2.96}]}
